In US20230144436A1, “MUSCLE TARGETING COMPLEXES AND USES THEREOF FOR TREATING MYOTONIC DYSTROPHY” (Dyne Therapeutics, Inc., priority 2020, published 2023):

Test system: DMPK
Assay: DMPK knockdown by transfected antisense oligonucleotides in DM1 C15 myotubes at 0.5 nM and 50 nM
Format: cell-based
Conditions: 72 hours; for Normalized DMPK Remaining: relative to vehicle control = 1.00
Procedure, shortened: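 DMPK remaining was measured by qPCR 72 h post-transfection, normalized to lipofectamine-only vehicle wells (=1.00). Oligonucleotides were delivered at 0.5 and 50 nM final to DM1 C15 myoblasts differentiated seven days into myotubes, in triplicate.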

[1] = 0.5 nM oligonucleotide, qPCR, relative to vehicle control
[2] = 50 nM oligonucleotide, qPCR, relative to vehicle control

Substance	Percent DMPK Reduction [1] [%]	Normalized DMPK Remaining (0.5 nM oligonucleotide, qPCR)	Percent DMPK Reduction [2] [%]	Normalized DMPK Remaining (50 nM oligonucleotide, qPCR)	Percent DMPK Reduction (0.5 nM oligonucleotide) [%]	Normalized DMPK Remaining (0.5 nM oligonucleotide)	Percent DMPK Reduction (50 nM oligonucleotide) [%]	Normalized DMPK Remaining (50 nM oligonucleotide)
372 (UGGCCAUGACAAUCUCCGCC; chemistry not given here) [compound 372]	30.46	0.70	72.55	0.27	–	–	–	–
373 (GGGACAGACAAUAAAUACCG; chemistry not given here) [compound 373]	27.19	0.73	50.50	0.49	–	–	–	–
374 (CCGCUCCCCAAACUUGCUCA; chemistry not given here) [compound 374]	0.28	1.00	56.82	0.43	–	–	–	–
375 (CGGCUCAGGCUCUGCCGGGU; chemistry not given here) [compound 375]	17.97	0.82	69.03	0.31	–	–	–	–
376 (GGCUCCUGGGCGGCGCCAGA; chemistry not given here) [compound 376]	0.05	1.00	96.23	0.04	–	–	–	–
377 (UUUCCCGAGUAAGCAGGCAG; chemistry not given here) [compound 377]	–	–	–	–	20.69	0.79	44.89	0.55
378 (GGAUGUUGUCGGGUUUGAUG; chemistry not given here) [compound 378]	–	–	–	–	4.26	0.96	40.81	0.59
379 (CAGGUAGUUCUCAUCCUGGA; chemistry not given here) [compound 379]	–	–	–	–	25.92	0.74	76.71	0.23
380 (UGCCCAUAGAACAUUUCAUA; chemistry not given here) [compound 380]	–	–	–	–	7.67	0.92	34.56	0.65
381 (UAGUUCUCAUCCUGGAAGGC; chemistry not given here) [compound 381]	–	–	–	–	16.83	0.83	43.88	0.56
382 (AUGUCCCUGUGCACGUAGCC; chemistry not given here) [compound 382]	–	–	–	–	16.78	0.83	49.29	0.51
383 (CGGGCCCGGAUCACAGGACU; chemistry not given here) [compound 383]	–	–	–	–	17.45	0.83	67.11	0.33
384 (UGGACGAUCUUGCCAUAGGU; chemistry not given here) [compound 384]	–	–	–	–	19.20	0.81	42.52	0.57
385 (GUUGGCCGGCGUGGGCCACC; chemistry not given here) [compound 385]	–	–	–	–	-1.82	1.02	43.57	0.56
386 (CUCAGUGCAUCCAAAACGUG; chemistry not given here) [compound 386]	–	–	–	–	7.65	0.92	54.26	0.46
387 (UCGAAGUUGCAUGUGUCGGU; chemistry not given here) [compound 387]	–	–	–	–	22.96	0.77	58.15	0.42
388 (UGGAACACGGACGGCCCGGC; chemistry not given here) [compound 388]	–	–	–	–	-1.90	1.02	60.96	0.39
389 (CCGAGAGCAGCGCAAGUGAG; chemistry not given here) [compound 389]	–	–	–	–	16.13	0.84	40.93	0.59
390 (UCCUGCAACUGCCGGACGUG; chemistry not given here) [compound 390]	–	–	–	–	16.06	0.84	44.61	0.55
391 (UCACCAACACGUCCCUCUCC; chemistry not given here) [compound 391]	–	–	–	–	47.12	0.53	84.09	0.16

Substance	Percent DMPK Reduction [1] [%]	Normalized DMPK Remaining (0.5 nM oligonucleotide, qPCR)	Percent DMPK Reduction [2] [%]	Normalized DMPK Remaining (50 nM oligonucleotide, qPCR)	Percent DMPK Reduction (0.5 nM oligonucleotide) [%]	Normalized DMPK Remaining (0.5 nM oligonucleotide)	Percent DMPK Reduction (50 nM oligonucleotide) [%]	Normalized DMPK Remaining (50 nM oligonucleotide)
392 (UGCCUGCAGCAACUCCAUCC; chemistry not given here) [compound 392]	–	–	–	–	13.99	0.86	49.75	0.50
393 (UUGGCCGGCGUGGGCCACCA; chemistry not given here) [compound 393]	–	–	–	–	-3.19	1.03	44.37	0.56
394 (GAGCCUCUGCCUCGCGUAGU; chemistry not given here) [compound 394]	–	–	–	–	18.77	0.81	77.78	0.22
395 (AAGGGCGUCUGCCCAUAGAA; chemistry not given here) [compound 395]	–	–	–	–	13.15	0.87	34.56	0.65
396 (ACAGACAAUAAAUACCGAGG; chemistry not given here) [compound 396]	–	–	–	–	-3.95	1.04	74.02	0.26
397 (GGACAGACAAUAAAUACCGA; chemistry not given here) [compound 397]	–	–	–	–	22.57	0.77	52.51	0.47
398 (ACGUGUGCCUCUAGGUCCCG; chemistry not given here) [compound 398]	–	–	–	–	16.47	0.84	77.73	0.22
399 (GGCACGAGACAGAACAACGG; chemistry not given here) [compound 399]	–	–	–	–	16.10	0.84	68.01	0.32
400 (UGACCAGGUACAGGUAGUUC; chemistry not given here) [compound 400]	–	–	–	–	22.00	0.78	63.73	0.36
401 (CUCUGCCGGGUGAGCACCUC; chemistry not given here) [compound 401]	–	–	–	–	25.25	0.75	74.36	0.26
402 (GACAAUCUCCGCCAGGUAGA; chemistry not given here) [compound 402]	–	–	–	–	23.70	0.76	49.82	0.50
403 (UCUCCGCCAGGUAGAAGCGC; chemistry not given here) [compound 403]	–	–	–	–	19.59	0.80	66.52	0.33
404 (CUCUGCCUCGCGUAGUUGAC; chemistry not given here) [compound 404]	–	–	–	–	16.61	0.83	91.21	0.09
405 (CUUUGGGCAGAUGGAGGGCC; chemistry not given here) [compound 405]	–	–	–	–	28.06	0.72	67.50	0.33
406 (ACAGGUAGUUCUCAUCCUGG; chemistry not given here) [compound 406]	–	–	–	–	20.51	0.79	85.36	0.15
407 (CCAAACUUGCTCAGCAGUGU; chemistry not given here) [compound 407]	–	–	–	–	23.64	0.76	57.70	0.42
408 (UCGGGUUUGAUGUCCCUGUG; chemistry not given here) [compound 408]	–	–	–	–	22.49	0.78	57.16	0.43
409 (GGCUUGCUGCCUUCCCAGGC; chemistry not given here) [compound 409]	–	–	–	–	-6.32	1.06	48.15	0.52
410 (UACAGGUAGUUCUCAUCCUG; chemistry not given here) [compound 410]	–	–	–	–	19.83	0.80	72.51	0.27
